The results in this text go back to patent publication US12565505B2, “mTORC modulators and uses thereof” (Aeovian Pharmaceuticals, Inc., priority 2019, dated 2026).

One experiment has as its target T1, mTORC2 (Homo sapiens, UniProt P42345+P62942).
T1 construct: endogenous in cells; host or cells: PC3 cells (human prostate adenocarcinoma)
As to the kind of experiment: Inhibition assay for mTORC2: phosphorylation of pAkt at Ser473, AlphaLISA SureFire in PC3 cells. The class given is cell-based. The following applies: PC3 cells, 24 hours treatment, analogs substituted at C40 and C16 (C16 diastereomer mixtures not isolated); for IC50: read-out: pIC50 mTORC2 (converted). In outline: (§1)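 Human prostate adenocarcinoma PC3 cells treated with compounds for 24 h. AlphaLISA SureFire read-out of pS6K Thr389 for mTORC1 and pAkt Ser473 for mTORC2, from which IC50s were derived.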

Another experiment concerns the target T2, mTORC1 (Homo sapiens, UniProt P42345+P62942).
T2 construct: endogenous in cells; host or cells: PC3 cells (human prostate adenocarcinoma)
Briefly: Inhibition assay for mTORC1: phosphorylation of pS6K at Thr389, AlphaLISA SureFire in PC3 cells. The following applies: PC3 cells, 24 hours treatment, pS6K Thr389, analogs substituted at C40 and C16 (C16 diastereomer mixtures not isolated); for IC50: read-out: pIC50 mTORC1 (converted). The class given is cell-based. In outline:
as §1

With `COCCOC1C[C@@H]2CC[C@@H](C)[C@@](O)(O2)C(=O)C(=O)N2CCCCC2C(=O)O[C@H]([C@H](C)C[C@@H]2CC[C@@H](OCCCN3CCC[C@H](O)C3)[C@H](OC)C2)CC(=O)[C@H](C)/C=C(\C)[C@@H](O)[C@@H](OC)C(=O)[C@H](C)C[C@H](C)/C=C/C=C/C=C/1C` (some centres unmarked) [Compound 54], the IC50 was 1000 to 10000 nM on mTORC2 and below 0.316 nM on mTORC1.

With `CO[C@@H]1C[C@H](C[C@@H](C)[C@@H]2CC(=O)[C@H](C)/C=C(\C)[C@@H](O)[C@@H](OC)C(=O)[C@H](C)C[C@H](C)/C=C/C=C/C=C(\C)C(OCC3CCOCC3)C[C@@H]3CC[C@@H](C)[C@@](O)(O3)C(=O)C(=O)N3CCCCC3C(=O)O2)CC[C@H]1OCCO` (some centres unmarked) [Compound 86], the IC50 is 1000 to 10000 nM on mTORC2 and 0.316 to 3.16 nM at mTORC1.

On to `COCCCCOC1C[C@@H]2CC[C@@H](C)[C@@](O)(O2)C(=O)C(=O)N2CCCCC2C(=O)O[C@H]([C@H](C)C[C@@H]2CC[C@@H](OCCO)[C@H](OC)C2)CC(=O)[C@H](C)/C=C(\C)[C@@H](O)[C@@H](OC)C(=O)[C@H](C)C[C@H](C)/C=C/C=C/C=C/1C` (some centres unmarked) [Compound 102], for which the IC50 on mTORC2 is 1000 to 10000 nM; at mTORC1, below 0.316 nM.

Take `COCCCOC1C[C@@H]2CC[C@@H](C)[C@@](O)(O2)C(=O)C(=O)N2CCCCC2C(=O)O[C@H]([C@H](C)C[C@@H]2CC[C@@H](OCCO)[C@H](OC)C2)CC(=O)[C@H](C)/C=C(\C)[C@@H](O)[C@@H](OC)C(=O)[C@H](C)C[C@H](C)/C=C/C=C/C=C/1C` (some centres unmarked) [Compound 31]: the IC50 on mTORC2 was 1000 to 10000 nM; at mTORC1, below 0.316 nM.

In the case of `CO[C@@H]1C[C@H](C[C@@H](C)[C@@H]2CC(=O)[C@H](C)/C=C(\C)[C@@H](O)[C@@H](OC)C(=O)[C@H](C)C[C@H](C)/C=C/C=C/C=C(\C)C(OCCc3ccccc3)C[C@@H]3CC[C@@H](C)[C@@](O)(O3)C(=O)C(=O)N3CCCCC3C(=O)O2)CC[C@H]1OCCCN1CCN(C)CC1` (some centres unmarked) [Compound 97], the IC50 is below 1000 nM on mTORC2 and below 0.316 nM at mTORC1.

In the case of `COCCOC1C[C@@H]2CC[C@@H](C)[C@@](O)(O2)C(=O)C(=O)N2CCCCC2C(=O)O[C@H]([C@H](C)C[C@@H]2CC[C@@H](OCCCN3C[C@@H](C)O[C@@H](C)C3)[C@H](OC)C2)CC(=O)[C@H](C)/C=C(\C)[C@@H](O)[C@@H](OC)C(=O)[C@H](C)C[C@H](C)/C=C/C=C/C=C/1C` (some centres unmarked) [Compound 59], the IC50 on mTORC2 was 1000 to 10000 nM; on mTORC1 it was below 0.316 nM.

Take `CO[C@@H]1C[C@H](C[C@@H](C)[C@@H]2CC(=O)[C@H](C)/C=C(\C)[C@@H](O)[C@@H](OC)C(=O)[C@H](C)C[C@H](C)/C=C/C=C/C=C(\C)C(OCCc3ccccc3)C[C@@H]3CC[C@@H](C)[C@@](O)(O3)C(=O)C(=O)N3CCCCC3C(=O)O2)CC[C@H]1OC(=O)NCCN(C)C` (stereo partly drawn) [Compound 104, [(1R,2R,4S)-4-[(2R)-2-[(1R,9S,12S,15R,16E,18R,19R,21R,23S,24E,26E,28E,32S,35R)-1,18-dihydroxy-19-methoxy-15,17,21,23,29,35-hexamethyl-2,3,10,14,20-pentaoxo-30-(2-phenylethoxy)-11,36-dioxa-4-azatricyclo[30.3.1.0^4,9]hexatriaconta-16,24,26,28-tetraen-12-yl]propyl]-2-methoxy-cyclohexyl] N-[2-(dimethylamino)ethyl]carbamate]: the IC50 at mTORC2 is below 1000 nM; at mTORC1, below 0.316 nM.

Turning to `CO[C@@H]1C[C@H](C[C@@H](C)[C@@H]2CC(=O)[C@H](C)/C=C(\C)[C@@H](O)[C@@H](OC)C(=O)[C@H](C)C[C@H](C)/C=C/C=C/C=C(\C)C(OCCO)C[C@@H]3CC[C@@H](C)[C@@](O)(O3)C(=O)C(=O)N3CCCCC3C(=O)O2)CC[C@H]1OCCCN1CCOC(C)(C)C1` (some centres unmarked) [Compound 12], the IC50 at mTORC2 was above 10000 nM; on mTORC1, below 0.316 nM.

As to `COCCCO[C@@H]1CC[C@@H](C[C@@H](C)[C@@H]2CC(=O)[C@H](C)/C=C(\C)[C@@H](O)[C@@H](OC)C(=O)[C@H](C)C[C@H](C)/C=C/C=C/C=C(\C)C(OCCO)C[C@@H]3CC[C@@H](C)[C@@](O)(O3)C(=O)C(=O)N3CCCCC3C(=O)O2)C[C@H]1OC` (some centres unmarked) [Compound 3], the values for the IC50 on mTORC2 and on mTORC1 were above 10000 nM and below 0.316 nM, respectively.

Consider `CO[C@@H]1C[C@H](C[C@@H](C)[C@@H]2CC(=O)[C@H](C)/C=C(\C)[C@@H](O)[C@@H](OC)C(=O)[C@H](C)C[C@H](C)/C=C/C=C/C=C(\C)C(OCCc3ccccc3)C[C@@H]3CC[C@@H](C)[C@@](O)(O3)C(=O)C(=O)N3CCCCC3C(=O)O2)CC[C@H]1OC(=O)N(C)CCN(C)C` (some centres unmarked) [Compound 109], for which the values for the IC50 on mTORC2 and on mTORC1 were below 1000 nM and below 0.316 nM, respectively.

Turning to `CO[C@@H]1CC[C@@H](C[C@@H](C)[C@@H]2CC(=O)[C@H](C)/C=C(\C)[C@@H](O)[C@@H](OC)C(=O)[C@H](C)C[C@H](C)/C=C/C=C/C=C(\C)C(OCCCO)C[C@@H]3CC[C@@H](C)[C@@](O)(O3)C(=O)C(=O)N3CCCCC3C(=O)O2)C[C@H]1OC` (some centres unmarked) [Compound 19], the IC50 is above 10000 nM on mTORC2 and below 0.316 nM at mTORC1.

`COCCCO[C@@H]1CC[C@@H](C[C@@H](C)[C@@H]2CC(=O)[C@H](C)/C=C(\C)[C@@H](O)[C@@H](OC)C(=O)[C@H](C)C[C@H](C)/C=C/C=C/C=C(\C)C(OCCOC)C[C@@H]3CC[C@@H](C)[C@@](O)(O3)C(=O)C(=O)N3CCCCC3C(=O)O2)C[C@H]1OC` (some centres unmarked) [Compound 14]: the IC50 at mTORC2 is above 10000 nM; at mTORC1, below 0.316 nM.

Consider `CO[C@@H]1C[C@H](C[C@@H](C)[C@@H]2CC(=O)[C@H](C)/C=C(\C)[C@@H](O)[C@@H](OC)C(=O)[C@H](C)C[C@H](C)/C=C/C=C/C=C(\C)C(OCCCO)C[C@@H]3CC[C@@H](C)[C@@](O)(O3)C(=O)C(=O)N3CCCCC3C(=O)O2)CC[C@H]1OCCO` (some centres unmarked) [Compound 15], for which the IC50 on mTORC2 is above 10000 nM; at mTORC1, below 0.316 nM.

`COCCOC1C[C@@H]2CC[C@@H](C)[C@@](O)(O2)C(=O)C(=O)N2CCCCC2C(=O)O[C@H]([C@H](C)C[C@@H]2CC[C@@H](OC(=O)N(C)CCN3CCOCC3)[C@H](OC)C2)CC(=O)[C@H](C)/C=C(\C)[C@@H](O)[C@@H](OC)C(=O)[C@H](C)C[C@H](C)/C=C/C=C/C=C/1C` (some centres unmarked) [Compound 25]: the results for the IC50 at mTORC2 and on mTORC1 were 1000 to 10000 nM and below 0.316 nM, respectively.

In the case of `COCCOC1C[C@@H]2CC[C@@H](C)[C@@](O)(O2)C(=O)C(=O)N2CCCCC2C(=O)O[C@H]([C@H](C)C[C@@H]2CC[C@@H](OCCN3CCCCC3)[C@H](OC)C2)CC(=O)[C@H](C)/C=C(\C)[C@@H](O)[C@@H](OC)C(=O)[C@H](C)C[C@H](C)/C=C/C=C/C=C/1C` (some centres unmarked) [Compound 51], the IC50 is 1000 to 10000 nM on mTORC2 and below 0.316 nM on mTORC1.

Take `CO[C@@H]1C[C@H](C[C@@H](C)[C@@H]2CC(=O)[C@H](C)/C=C(\C)[C@@H](O)[C@@H](OC)C(=O)[C@H](C)C[C@H](C)/C=C/C=C/C=C(\C)C(OC[C@H](O)c3ccccc3)C[C@@H]3CC[C@@H](C)[C@@](O)(O3)C(=O)C(=O)N3CCCCC3C(=O)O2)CC[C@H]1OCCO` (some centres unmarked) [Compound 88]: the IC50 is 1000 to 10000 nM on mTORC2 and below 0.316 nM at mTORC1.

“(1R,9S,12SR,15R,16E,18R,19R,21R,23S,24E,26E,28E,32SR,35R)-1,18-dihydroxy-30-(3-hydroxypropoxy)-19-methoxy-12-[(1R)-2-[(1S,3R,4R)-3-methoxy-4-(3-phenylpropoxy)cyclohexyl]-1-methyl-ethyl]-15,17,21,23,29,35-hexamethyl-11,36-dioxa-4-azatricyclo[30.3.1.0^4,9]hexatriaconta-16,24,26,28-tetraene-2,3,10,14,20-pentone [Compound 67]”: on mTORC2, the “pIC50 mTORC2” value was “A (PIC50 for mTORC2 of <5 as A)”. Moreover, the “pIC50 mTORC1” value at mTORC1 is “B (8.5 to 9.5 as B)”.

With `CO[C@@H]1C[C@H](C[C@@H](C)[C@@H]2CC(=O)[C@H](C)/C=C(\C)[C@@H](O)[C@@H](OC)C(=O)[C@H](C)C[C@H](C)/C=C/C=C/C=C(\C)C(OCC(C)(C)O)C[C@@H]3CC[C@@H](C)[C@@](O)(O3)C(=O)C(=O)N3CCCCC3C(=O)O2)CC[C@H]1OCCCO` (some centres unmarked) [Compound 98], the results for the IC50 at mTORC2 and on mTORC1 were 1000 to 10000 nM and 0.316 to 3.16 nM, respectively.

In the case of `CO[C@@H]1C[C@H](C[C@@H](C)[C@@H]2CC(=O)[C@H](C)/C=C(\C)[C@@H](O)[C@@H](OC)C(=O)[C@H](C)C[C@H](C)/C=C/C=C/C=C(\C)C(OCCc3ccccc3)C[C@@H]3CC[C@@H](C)[C@@](O)(O3)C(=O)C(=O)N3CCCCC3C(=O)O2)CC[C@H]1OCCCN1CCOCC1` (some centres unmarked) [Compound 108], the IC50 is below 1000 nM at mTORC2 and below 0.316 nM on mTORC1.

In the case of `CO[C@@H]1C[C@H](C[C@@H](C)[C@@H]2CC(=O)[C@H](C)/C=C(\C)[C@@H](O)[C@@H](OC)C(=O)[C@H](C)C[C@H](C)/C=C/C=C/C=C(\C)C(OCCO)C[C@@H]3CC[C@@H](C)[C@@](O)(O3)C(=O)C(=O)N3CCCCC3C(=O)O2)CC[C@H]1OCCN1CCOCC1` (some centres unmarked) [Compound 8], the IC50 on mTORC2 was above 10000 nM; on mTORC1, below 0.316 nM.

As to `CO[C@@H]1C[C@H](C[C@@H](C)[C@@H]2CC(=O)[C@H](C)/C=C(\C)[C@@H](O)[C@@H](OC)C(=O)[C@H](C)C[C@H](C)/C=C/C=C/C=C(\C)C(OCCc3ccccc3)C[C@@H]3CC[C@@H](C)[C@@](O)(O3)C(=O)C(=O)N3CCCCC3C(=O)O2)CC[C@H]1OC(=O)NCCc1c[nH]cn1` (some centres unmarked) [Compound 110], the IC50 was below 1000 nM at mTORC2 and below 0.316 nM on mTORC1.

Turning to `CO[C@@H]1C[C@H](C[C@@H](C)[C@@H]2CC(=O)[C@H](C)/C=C(\C)[C@@H](O)[C@@H](OC)C(=O)[C@H](C)C[C@H](C)/C=C/C=C/C=C(\C)C(OCCO)C[C@@H]3CC[C@@H](C)[C@@](O)(O3)C(=O)C(=O)N3CCCCC3C(=O)O2)CC[C@H]1OCCCN1C[C@@H](C)O[C@@H](C)C1` (some centres unmarked) [Compound 18], the IC50 on mTORC2 was above 10000 nM; at mTORC1, below 0.316 nM.
